Format in all cases: cell-based, murine and human
Holding throughout (details): GAL4-PPAR LBD chimera

For assay [1], the target named is T1, PPAR-alpha (UniProt Q07869).
T1 sequence (Q07869 1-468): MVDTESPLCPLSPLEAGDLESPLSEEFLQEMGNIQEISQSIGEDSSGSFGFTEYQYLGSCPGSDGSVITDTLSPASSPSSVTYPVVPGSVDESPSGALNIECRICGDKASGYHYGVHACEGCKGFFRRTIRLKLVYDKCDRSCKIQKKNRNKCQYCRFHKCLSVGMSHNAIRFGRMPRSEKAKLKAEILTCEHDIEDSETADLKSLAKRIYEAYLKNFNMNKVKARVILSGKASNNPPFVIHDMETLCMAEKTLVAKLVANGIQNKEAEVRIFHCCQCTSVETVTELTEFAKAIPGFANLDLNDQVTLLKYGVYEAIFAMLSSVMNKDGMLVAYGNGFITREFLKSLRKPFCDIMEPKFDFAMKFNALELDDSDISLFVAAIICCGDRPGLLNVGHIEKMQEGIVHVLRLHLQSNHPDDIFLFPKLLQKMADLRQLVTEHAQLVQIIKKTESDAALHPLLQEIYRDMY
Put plainly: PPAR-alpha transactivation assay (GAL4 chimera, luciferase reporter) in CV-1 cells. In a few lines:
(§1)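 CV-1 cells transiently transfected with murine or human PPAR-alpha, -gamma or -delta ligand-binding domain fused to GAL4 DNA-binding domain plus a GAL4-site luciferase reporter. After replating in phenol-red-free DME with 5% delipidated calf serum, cells were exposed to compound 20-24 h; luciferase read-out gave EC50.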

Assay [2] concerns the target T2, PPAR-delta (UniProt Q03181).
T2 sequence (Q03181 1-441): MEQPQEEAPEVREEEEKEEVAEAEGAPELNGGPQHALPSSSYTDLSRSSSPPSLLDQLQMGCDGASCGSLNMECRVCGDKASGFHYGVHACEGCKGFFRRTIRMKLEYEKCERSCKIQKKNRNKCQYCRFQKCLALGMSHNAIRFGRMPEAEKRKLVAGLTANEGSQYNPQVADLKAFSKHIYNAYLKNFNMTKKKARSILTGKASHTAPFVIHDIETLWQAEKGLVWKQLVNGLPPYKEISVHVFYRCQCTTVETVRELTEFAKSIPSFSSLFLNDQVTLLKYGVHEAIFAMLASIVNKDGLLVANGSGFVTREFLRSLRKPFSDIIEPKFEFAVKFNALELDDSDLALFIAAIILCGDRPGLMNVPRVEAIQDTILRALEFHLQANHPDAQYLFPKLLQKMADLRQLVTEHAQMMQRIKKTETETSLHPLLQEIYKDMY
In words: PPAR-delta transactivation assay (GAL4 chimera, luciferase reporter) in CV-1 cells. In short, it runs like this:
as §1
A general note: A reporter such as luciferase makes a cellular process visible.

In assay [3] the target is T3, PPAR-gamma (UniProt P37231).
T3 sequence (P37231 1-505): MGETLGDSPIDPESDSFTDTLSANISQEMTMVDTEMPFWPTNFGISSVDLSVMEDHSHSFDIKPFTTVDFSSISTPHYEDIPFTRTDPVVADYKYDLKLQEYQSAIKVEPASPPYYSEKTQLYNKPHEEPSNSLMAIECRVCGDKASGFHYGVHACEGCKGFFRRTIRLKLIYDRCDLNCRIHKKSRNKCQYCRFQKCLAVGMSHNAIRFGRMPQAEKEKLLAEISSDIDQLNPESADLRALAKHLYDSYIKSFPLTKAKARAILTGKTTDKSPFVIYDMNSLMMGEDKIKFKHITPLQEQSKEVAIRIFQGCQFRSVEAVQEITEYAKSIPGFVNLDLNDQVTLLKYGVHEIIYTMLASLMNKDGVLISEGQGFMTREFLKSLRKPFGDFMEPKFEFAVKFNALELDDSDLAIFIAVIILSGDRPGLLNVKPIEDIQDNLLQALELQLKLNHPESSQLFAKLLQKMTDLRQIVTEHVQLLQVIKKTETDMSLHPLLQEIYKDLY
In words: PPAR-gamma transactivation assay (GAL4 chimera, luciferase reporter) in CV-1 cells. In short, it runs like this: as §1

As a reminder, the EC50 is the concentration needed to bring the measured effect to its halfway point. In the case of `C[C@@H]1CN(c2ccc(OC(F)(F)F)cc2)C[C@H](C)N1S(=O)(=O)c1cccc2c1CC(c1nnn[nH]1)C2` (stereo partly drawn) [Example 109, cis-2,6-dimethyl-1-[2-(1H-tetrazol-5-yl)-indane-4-sulfonyl]-4-(4-trifluoromethoxy-phenyl)-piperazine], the half-maximal effective concentration (EC50) in assay [1] is above 100 µM; in assay [2], below 5 µM; in assay [3], 5 to 100 µM.
Take `C[C@@H]1CN(Cc2ccc(OC(F)(F)F)cc2)C[C@H](C)N1S(=O)(=O)c1ccc2scc(CC(=O)O)c2c1` [Example 110, {5-[cis-2,6-dimethyl-4-(4-trifluoromethoxy-benzyl)-piperazine-1-sulfonyl]-benzo[b]thiophen-3-yl}-acetic acid]: the concentration for a half-maximal effect (EC50) in assay [1] was above 100 µM; in assay [2], below 5 µM; in assay [3], 5 to 100 µM.
For the compound `C[C@@H]1CN(Cc2ccc(Cl)c(Cl)c2)C[C@H](C)N1S(=O)(=O)c1cccc2c1CC(C(=O)O)C2` (stereo partly drawn) [Example 111], the concentration giving a half-maximal response (EC50) was above 100 µM in assay [1], below 5 µM in assay [2] and 5 to 100 µM in assay [3].
Regarding `O=C(O)C1Cc2cccc(S(=O)(=O)N3CCN(c4cccc(OCC(F)(F)F)c4)CC3)c2C1` (stereo not drawn) [Example 112, 4-{4-[3-(2,2,2-trifluoro-ethoxy)-phenyl]-piperazine-1-sulfonyl}-indan-2-carboxylic acid], the concentration for a half-maximal effect (EC50) in assay [1], in assay [2] and in assay [3] was 5 to 100 µM throughout.
Regarding `O=C(O)C1Cc2cccc(S(=O)(=O)N3CCN(c4cccc(OC(F)(F)F)c4)CC3)c2C1` (stereo not drawn) [Example 113, 4-[4-(3-Trifluomethoxy-phenyl)-piperazine-1-sulfonyl]-indan-2-carboxylic acid], the EC50 in assay [1] is 5 to 100 µM; in assay [2], below 5 µM; in assay [3], 5 to 100 µM.
On to `O=C(O)C1Cc2cccc(S(=O)(=O)N3CCN(c4ccc(OCC(F)(F)F)cc4)CC3)c2C1` (stereo not drawn) [Example 114, 4-{4-[4-(2,2,2-Trifluoro-ethoxy)-phenyl]-piperazine-1-sulfonyl}-indan-2-carboxylic acid], for which the concentration for a half-maximal effect (EC50) in assay [1], in assay [2] and in assay [3] was 5 to 100 µM in each case.
As for `C[C@@H]1CN(c2cccc(OC(F)(F)F)c2)C[C@H](C)N1S(=O)(=O)c1cccc2c1CC(C(=O)O)C2` (stereo partly drawn) [Example 115, 4-[cis-2,6-dimethyl-4-(3-trifluoromethoxyphenyl)piperazin-1-ylsulfonyl]-2,3-dihydro-1H-indene-2-carboxylic acid], the concentration giving a half-maximal response (EC50) in assay [1] was above 100 µM; in assay [2] it was below 5 µM; in assay [3], 5 to 100 µM.
The matching figures for `C[C@H]1CN(S(=O)(=O)c2cccc3c2CC(C(=O)O)C3)[C@@H](C)CN1c1ccc(C(F)(F)F)cn1` (stereo partly drawn) [Example 116, 4-[2S,5S-dimethyl-4-(5-trifluoromethyl-pyridin-2-yl)-piperazine-1-sulfonyl]-indan-2(R,S)-carboxylic acid]: 5 to 100 µM, below 5 µM and 5 to 100 µM.
Take `O=C(O)C1Cc2cccc(S(=O)(=O)N3C4CCCC3CN(c3ccc(OC(F)(F)F)cc3)C4)c2C1` (stereo not drawn) [Example 117, 4-[3-(4-trifluoromethoxy-phenyl)-3,9-diaza-bicyclo[3.3.1]nonane-9-sulfonyl]-indan-2-carboxylic acid]: the EC50 in assay [1] is 5 to 100 µM; in assay [2], below 5 µM; in assay [3], 5 to 100 µM.
Consider `C[C@@H]1CN(c2ccc(Cl)c(Br)c2)C[C@H](C)N1S(=O)(=O)c1cccc2c1CC(C(=O)O)C2` (stereo partly drawn) [Example 120, 4-(4-(3-bromo-4-chlorophenyl)-cis-2,6-dimethylpiperazin-1-ylsulfonyl)-2,3-dihydro-1H-indene-2-carboxylic acid], for which the values for the concentration giving a half-maximal response (EC50) in assay [1], in assay [2] and in assay [3] were above 100 µM, below 5 µM and above 100 µM, respectively.
In the case of `C[C@@H]1CN(c2cc(F)c(C(F)(F)F)c(F)c2)C[C@H](C)N1S(=O)(=O)c1cccc2c1CC(C(=O)O)C2` (stereo partly drawn) [Example 121, 4-(4-(3,5-Difluoro-4-(trifluoromethyl)phenyl)-cis-2,6-dimethylsulfonyl)-2,3-dihydro-1H-indene-2-carboxylic acid], the values for the 50% effective concentration (EC50) in assay [1], in assay [2] and in assay [3] were 5 to 100 µM, below 5 µM and above 100 µM, respectively.
For the compound `C[C@@H]1CN(c2ccc(C(F)(F)F)c(Br)c2)C[C@H](C)N1S(=O)(=O)c1cccc2c1CC(C(=O)O)C2` (stereo partly drawn) [Example 122, 4-(4-(3-Bromo-4-(trifluoromethyl)phenyl)-cis-2,6-dimethylpiperazin-1-ylsulfonyl)-2,3-dihydro-1H-indene-2-carboxylic acid], the EC50 in assay [1] was above 100 µM; in assay [2], below 5 µM; in assay [3], above 100 µM.
In the case of `C[C@@H]1CN(c2cc(F)cc(F)c2Cl)C[C@H](C)N1S(=O)(=O)c1cccc2c1CC(C(=O)O)C2` (stereo partly drawn) [Example 123, 4-(4-(2-Chloro-3,5-difluorophenyl)-cis-2,6-dimethylpiperazin-1-ylsulfonyl)-2,3-dihydro-1H-indene-2-carboxylic acid], the 50% effective concentration (EC50) was above 100 µM in assay [1], 5 to 100 µM in assay [2] and above 100 µM in assay [3].
As for `C[C@@H]1CN(c2cc(F)c(Cl)c(F)c2)C[C@H](C)N1S(=O)(=O)c1cccc2c1CC(C(=O)O)C2` (stereo partly drawn) [Example 124, 4-(4-(4-Chloro-3,5-difluorophenyl)-cis-2,6-dimethylpiperazin-1-ylsulfonyl)-2,3-dihydro-1H-indene-2-carboxylic acid], the concentration giving a half-maximal response (EC50) in assay [1] is above 100 µM; in assay [2], below 5 µM; in assay [3], above 100 µM.
As to `O=C(O)C1Cc2cccc(S(=O)(=O)N3C4CSCC3CN(c3ccc(OC(F)(F)F)cc3)C4)c2C1` (stereo not drawn) [Example 125, 4-(7-(4-(Trifluoromethoxy)phenyl)-3-thia-7,9-diazabicyclo|3.3.1|nonan-9-ylsulfonyl)-2,3-dihydro-1H-indene-2-carboxylic acid], the figures for the EC50 in assay [1], in assay [2] and in assay [3] were above 100 µM, below 5 µM and above 100 µM, respectively.
In the case of `C[C@@H]1CN(c2ccc(Cl)cc2)C[C@H](C)N1S(=O)(=O)c1cccc2c1CC(C(=O)O)C2` (stereo partly drawn) [Example 126, 4-[4-(4-Chlorophenyl)-cis-2,6-dimethylpiperazin-1-ylsulfonyl]-2,3-dihydro-1H-indene-2-carboxylic acid], the EC50 in assay [1] is above 100 µM; in assay [2], below 5 µM; in assay [3], above 100 µM.
Turning to `C[C@@H]1CN(c2ccc(Cl)c(OC(F)(F)F)c2)C[C@H](C)N1S(=O)(=O)c1cccc2c1CC(C(=O)O)C2` (stereo partly drawn) [Example 131, 4-|4-(4-Chloro-3-trifluoromethoxyphenyl)-cis-2,6-dimethylpiperazine-1-ylsulfonyl|-2,3-dihydro-1H-indene-2-carboxylic acid], the concentration for a half-maximal effect (EC50) in assay [1] is above 100 µM; in assay [2], below 5 µM; in assay [3], above 100 µM.
For `C[C@@H]1CN(c2ccc(Cl)c(F)c2)C[C@H](C)N1S(=O)(=O)c1cccc2c1CC(C(=O)O)C2` (stereo partly drawn) [Example 132, 4-|4-(4-Chloro-3-fluorophenyl)-cis-2,6-dimethylpiperazin-1-ylsulfonyl|-2,3-dihydro-1H-indene-2-carboxylic acid], the EC50 is above 100 µM in assay [1], below 5 µM in assay [2] and above 100 µM in assay [3].
Turning to `COc1cc(N2C[C@@H](C)N(S(=O)(=O)c3cccc4c3CC(C(=O)O)C4)[C@@H](C)C2)ccc1Cl` (stereo partly drawn) [Example 133, 4-|4-(4-Chloro-3-methoxyphenyl)-cis-2,6-dimethylpiperazine-1-ylsulfonyl|-2,3-dihydro-1H-indene-2-carboxylic acid], the EC50 was above 100 µM in assay [1], below 5 µM in assay [2] and above 100 µM in assay [3].
Regarding `C[C@@H]1CN(c2ccc(Cl)c(C(F)(F)F)c2)C[C@H](C)N1S(=O)(=O)c1cccc2c1CC(C(=O)O)C2` (stereo partly drawn) [Example 134], the 50% effective concentration (EC50) in assay [1] is above 100 µM; in assay [2], below 5 µM; in assay [3], above 100 µM.

Source of the values: patent US7517884B2 (Kalypsys Inc., priority 1998, dated 2009).
